# Measured values taken from patent publication US8518903B2, “Use of toll-like receptor-9 agonists” (University of Pittsburgh—of the Commonwealth System of …, priority 2007, dated 2013).
# What was measured:
# [1] = test system: enterocytes; assay: LPS-mediated NF-κB (p65) translocation in enterocytes, with and without TLR9 siRNA knock-down; assay type: cell-based
# Method: FIG. 7A-E. LPS-mediated translocation in enterocytes which are either (A) untreated or treated with (B) 50 μg/ml LPS; (C) 50 μg/ml LPS+10 μM CpG; or (D) 10 μM CpG. (E) Bar graph showing the nuclear:cytoplasmic ratio for NF-κB in (A)-(D).
# FIG. 9A-F. CpG-DNA reduces TLR4 signaling through TLR9 in enterocytes. (A) Western blot showing the amounts of TLR9 protein relative to actin in untreated enterocytes (Ctrl) or in enterocytes treated with 0.084 μM non-specific siRNA or siRNA specific for TLR9. (B)-(E) are immunofluorescence studies showing the relative amounts of p65 in the enterocyte nucleus versus its cytoplasm, when either (B) untreated or treated with (C) 50 μg/ml LPS; (D) 50 μg/ml LPS+10 μM CpG (in the context of normal TLR9 levels) or (E) 50 μg/ml LPS+10 μM CpG (in the context of TLR9 knockdown by siRNA). (E) Bar graph showing the results of (B)-(E).
# A second series of experiments was designed to study the consequences of the TLR4 activator LPS and the TLR9 activator CpG on the mediator of activated TLR4, NFκB. As shown by comparing FIGS. 7A and B, LPS causes NFκB to translocate into the nucleus. The extent of translocation caused by LPS is decreased by co-exposure to CpG (FIGS. 7C and E).
# All the foregoing three series of experiments have shown that CpG (an activator of TLR9) inhibited the effects of TLR4 activation, including its role in promoting inflammation. […]
# [2] = test system: murine model of endotoxemia; assay: Enterocyte apoptosis (caspase 3) in murine model of endotoxemia; assay type: in vivo, mouse; details: 5 mg/kg LPS + 1 mg/kg CpG-DNA vs LPS, 3 hours
# Method: (A) Control mice (injected with saline). (B) Mice injected with 5 mg/kg of LPS. (C) Mice injected with 5 mg/kg of LPS and 1 mg/kg of CpG. (D-G) Immunohistochemical staining of terminal ileum from newborn mice that were either breast fed (“control”) or induced to develop NEC (“NEC”). Sections were stained for caspase 3 as a marker of apoptosis and enterocyte loss; positive staining is indicated by a small arrowhead. (D) Control injected with saline. (E) NEC injected with saline. (F) Control injected with 1 mg/kg CpG-DNA daily for four days. (G) NEC injected with 1 mg/kg CpG-DNA daily for four days. (H) Bar graph summarizing results, showing percent apoptosis in terminal ileum as depicted in (D)-(G).
# Induction of necrotizing enterocolitis. All mice were housed and cared for at Rangos Research Center, Children's Hospital of Pittsburgh. All experiments were approved by the Children's Hospital of Pittsburgh Animal Care Committee and the Institutional Review Board of the University of Pittsburgh (protocol 45-06). Swiss-Webster (CfW) and C57/B1-6 mice were obtained from Jackson Laboratories (Jackson Laboratory, Bar Harbor, Me.). Endotoxemia was induced in 2 week old C57/B16 or CpG1 (TLR9-mutant) mice by the intraperitoneal injection of LPS (Escherichia coli 0111:B4 purified by gel-filtration chromatography, >99% pure, 5 mg/kg, Sigma-Aldrich, St. Louis, Mo.). […]
substance,measurement,setting,value
5′-TCCATGACGTTCCTGACGTT-3′ [CpG-DNA],attenuating effect of CpG on translocation of NFκB subunit p65,"[1]; enterocytes with TLR9 expression suppressed by siRNA, 50 μg/ml LPS + 10 μM CpG",virtually eliminated
same,extent of NFκB translocation into the nucleus caused by LPS,"[1]; enterocytes, 50 μg/ml LPS + 10 μM CpG vs LPS alone",decreased
same,apoptosis in enterocytes of terminal ileum (caspase 3),[2],substantially reduced
